Patent US20170066795A1, “SOLID PRODRUG FORMS OF 2'-CHLORO-2'-METHYL URIDINE FOR HCV” (IDENIX PHARMACEUTICALS LLC, priority 2014, published 2017)

Columns and labels:
[1] = test system: HCV; test: Example 3 Parts I and II: antiviral activity across genotypes; assay type: in vivo; conditions: HCV-infected subjects, 50-300 mg QD x 7 days
From the text: This part was a randomized, double-blind, placebo-controlled, parallel group study in treatment-naïve, Genotype 1 HCV-infected subjects. Thirty (30) subjects were randomized across the treatment arms specified below.
This part were a randomized, open-label, parallel group study in treatment-naïve, Genotype 2, 3, 4, 5 and 6 HCV-infected subjects. Thirty (30) subjects were randomized across the treatment arms specified below.
Dosing, sampling, and analyses for Parts I and II were made according to Tables A and B.

[2] = Example 4 Group A: safety (adverse events) in healthy volunteers; assay type: in vivo, human
Description: Six sequential cohorts of 8 health volunteers per cohort were randomized via a computer-generated randomization list in the ratio of 2:6. Two of the healthy volunteers (HV) received placebo and the remaining six received Compound I under fasted conditions at single ascending doses of 10, 25, 50, 150, or 300 mg, or multiple doses at 300 mg QD for 7 days (below, “Group A”).
For Groups A and B, dosing occurred between approximately 08:00 AM and 10:00 AM on each dosing day. Dosing was fasted for all subjects in Groups A and B. For fasted dosing, subjects observed a fasting period of approximately 10 hours prior to each dose and for an additional 4 hours post-dose.
Safety measurements included clinical history, routine laboratory evaluation, physical examination, 12-lead ECG, vital signs, adverse event (AE) assessment.

## CC(C)OC(=O)[C@@H](C)N[P@@](=O)(OC[C@H]1O[C@@H](n2ccc(=O)[nH]c2=O)[C@](C)(Cl)[C@@H]1O)Oc1ccccc1 [Compound I]
[1]
  antiviral activity across genotypes: potent pan-genotypic activity in a dose-dependent manner
[2]; 10 mg single dose (n = 6)
  Adverse event: Abdominal discomfort: 0 n, %
  Adverse event: Abnormal feces: 0 n, %
  Adverse event: Constipation: 0 n, %
  Adverse event: Dizziness: 0 n, %
  Adverse event: Dry mouth: 0 n, %
  Adverse event: Dry skin: 0 n, %
  Adverse event: Erythema: 0 n, %
  Adverse event: Flushing: 0 n, %
  Adverse event: Headache: 0 n, %
  Adverse event: Menstruation delayed: 0 n, %
  Adverse event: Musculoskeletal stiffness: 0 n, %
  Adverse event: Nausea: 0 n, %
  Adverse event: Palpitations: 0 n, %
  Adverse event: Pancreatic enzymes increased: 0 n, %
  Adverse event: Procedural nausea: 0 n, %
  Adverse event: Vessel puncture site bruise: 0 n, %
  Adverse event: Vessel puncture site pain: 0 n, %
  Adverse event: Vomiting: 0 n, %
  Subjects with AE: 0 n, %
[2]; 25 mg single dose (n = 6)
  Adverse event: Abdominal discomfort: 0 n, %
  Adverse event: Abnormal feces: 0 n, %
  Adverse event: Constipation: 0 n, %
  Adverse event: Dizziness: 0 n, %
  Adverse event: Dry mouth: 0 n, %
  Adverse event: Dry skin: 0 n, %
  Adverse event: Erythema: 0 n, %
  Adverse event: Flushing: 0 n, %
  Adverse event: Headache: 0 n, %
  Adverse event: Menstruation delayed: 0 n, %
  Adverse event: Musculoskeletal stiffness: 0 n, %
  Adverse event: Nausea: 0 n, %
  Adverse event: Palpitations: 0 n, %
  Adverse event: Pancreatic enzymes increased: 1 (16.7) n, %
  Adverse event: Procedural nausea: 1 (16.7) n, %
  Adverse event: Vessel puncture site bruise: 0 n, %
  Adverse event: Vessel puncture site pain: 0 n, %
  Adverse event: Vomiting: 0 n, %
  Subjects with AE: 2 (33.3) n, %
[2]; 50 mg single dose (n = 6)
  Adverse event: Abdominal discomfort: 1 (16.7) n, %
  Adverse event: Abnormal feces: 0 n, %
  Adverse event: Constipation: 0 n, %
  Adverse event: Dizziness: 1 (16.7) n, %
  Adverse event: Dry mouth: 0 n, %
  Adverse event: Dry skin: 0 n, %
  Adverse event: Erythema: 0 n, %
  Adverse event: Flushing: 0 n, %
  Adverse event: Headache: 1 (16.7) n, %
  Adverse event: Menstruation delayed: 0 n, %
  Adverse event: Musculoskeletal stiffness: 0 n, %
  Adverse event: Nausea: 0 n, %
  Adverse event: Palpitations: 0 n, %
  Adverse event: Pancreatic enzymes increased: 0 n, %
  Adverse event: Procedural nausea: 0 n, %
  Adverse event: Vessel puncture site bruise: 0 n, %
  Adverse event: Vessel puncture site pain: 0 n, %
  Adverse event: Vomiting: 0 n, %
